From ChEMBL document CHEMBL1139120, “Discovery of novel phosphorus-containing steroids as selective glucocorticoid receptor antagonist” (Bioorg Med Chem Lett, 2007)
One block for each molecule: values may come before it. Activity calls are given as the source filed them. The calls are words filed in the database; no cut-off is given here.

Experiments:
Progesterone receptor = biological target: T1, Progesterone receptor (Homo sapiens, UniProt P06401); experiment: Antagonist activity at progesterone receptor expressed in human T47 cells assessed as blockade of progesterone-induced alkaline phosphatase activity; assay type: functional, cell-based
T1 sequence (P06401 whole entry): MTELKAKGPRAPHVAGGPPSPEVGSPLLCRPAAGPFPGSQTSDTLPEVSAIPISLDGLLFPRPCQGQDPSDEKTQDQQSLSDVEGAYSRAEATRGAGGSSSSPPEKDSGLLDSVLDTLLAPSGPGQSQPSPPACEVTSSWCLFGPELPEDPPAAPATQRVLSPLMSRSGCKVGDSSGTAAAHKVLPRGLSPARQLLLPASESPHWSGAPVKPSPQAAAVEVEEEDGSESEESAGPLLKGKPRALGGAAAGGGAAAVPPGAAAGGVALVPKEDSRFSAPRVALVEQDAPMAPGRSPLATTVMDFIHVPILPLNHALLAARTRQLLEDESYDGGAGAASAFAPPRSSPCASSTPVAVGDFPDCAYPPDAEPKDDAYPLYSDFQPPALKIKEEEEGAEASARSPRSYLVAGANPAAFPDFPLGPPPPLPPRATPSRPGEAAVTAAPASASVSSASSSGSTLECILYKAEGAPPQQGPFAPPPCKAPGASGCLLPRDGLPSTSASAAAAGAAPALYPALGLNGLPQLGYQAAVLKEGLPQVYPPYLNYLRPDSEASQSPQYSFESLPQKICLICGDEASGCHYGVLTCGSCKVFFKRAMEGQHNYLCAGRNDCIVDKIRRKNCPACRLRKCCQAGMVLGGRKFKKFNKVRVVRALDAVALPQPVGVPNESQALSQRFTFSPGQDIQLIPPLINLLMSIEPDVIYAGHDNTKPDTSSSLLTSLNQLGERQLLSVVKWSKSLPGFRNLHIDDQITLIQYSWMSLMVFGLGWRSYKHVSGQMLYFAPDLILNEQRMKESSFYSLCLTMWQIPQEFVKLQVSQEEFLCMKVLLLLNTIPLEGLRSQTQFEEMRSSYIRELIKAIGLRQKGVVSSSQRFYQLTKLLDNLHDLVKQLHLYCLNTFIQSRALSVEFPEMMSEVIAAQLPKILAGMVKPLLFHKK

[1] = Permeability across Caco-2 cells; assay type: ADME, cell-based; conditions: human, read-out: permeability
A549 = experiment: Selectivity index, Ratio of IC50 for progesterone receptor expressed in human T47 cells to IC50 for glucocorticoid receptor expressed in human A549 cells
Glucocorticoid receptor = biological target: T2, Glucocorticoid receptor (Homo sapiens, UniProt P04150); experiment: Antagonist activity at glucocorticoid receptor expressed in human A549 cells assessed as inhibition of corticoid-induced transcription by glucocorticoid response element-linked luciferase reporter gene assay; assay type: functional, cell-based
T2 sequence (P04150 whole entry): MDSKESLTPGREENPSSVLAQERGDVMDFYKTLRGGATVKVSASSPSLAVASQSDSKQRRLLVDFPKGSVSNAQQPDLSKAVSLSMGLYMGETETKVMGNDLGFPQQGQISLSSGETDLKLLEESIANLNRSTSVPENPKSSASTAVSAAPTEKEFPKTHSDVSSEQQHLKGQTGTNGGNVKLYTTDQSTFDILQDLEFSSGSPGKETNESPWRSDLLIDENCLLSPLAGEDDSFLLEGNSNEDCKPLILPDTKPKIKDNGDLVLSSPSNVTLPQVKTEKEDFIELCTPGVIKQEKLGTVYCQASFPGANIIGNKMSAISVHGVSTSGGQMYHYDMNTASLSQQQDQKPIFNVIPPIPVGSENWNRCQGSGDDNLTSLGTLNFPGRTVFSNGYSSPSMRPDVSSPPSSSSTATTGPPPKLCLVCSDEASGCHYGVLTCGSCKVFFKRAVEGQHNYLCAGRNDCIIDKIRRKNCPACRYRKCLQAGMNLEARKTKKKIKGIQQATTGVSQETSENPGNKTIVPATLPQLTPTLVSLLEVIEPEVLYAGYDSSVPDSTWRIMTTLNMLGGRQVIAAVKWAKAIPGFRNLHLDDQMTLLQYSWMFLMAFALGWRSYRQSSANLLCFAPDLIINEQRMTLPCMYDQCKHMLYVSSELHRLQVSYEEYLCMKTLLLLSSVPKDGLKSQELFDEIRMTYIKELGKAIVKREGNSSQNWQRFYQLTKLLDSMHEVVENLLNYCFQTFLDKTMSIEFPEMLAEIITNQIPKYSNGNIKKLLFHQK

[2] = Cmax in mouse at 2 mg/kg, iv; assay type: ADME, organism-based; design: dose 2 mg/kg, route intravenous; conditions: in vivo
[3] = Tmax in mouse at 10 mg/kg, po; assay type: ADME, organism-based; design: dose 10 mg/kg, route oral; conditions: in vivo
[4] = Half life in mouse at 2 mg/kg, iv; assay type: ADME, organism-based; design: dose 2 mg/kg, route intravenous; conditions: in vivo
[5] = Clearance in mouse at 2 mg/kg, iv; assay type: ADME, organism-based; design: dose 2 mg/kg, route intravenous; conditions: in vivo
[6] = Cmax in mouse at 10 mg/kg, po; assay type: ADME, organism-based; design: dose 10 mg/kg, route oral; conditions: in vivo
[7] = Half life in mouse at 10 mg/kg, po; assay type: ADME, organism-based; design: dose 10 mg/kg, route oral; conditions: in vivo
[8] = Tmax in mouse at 2 mg/kg, iv; assay type: ADME, organism-based; design: dose 2 mg/kg, route intravenous; conditions: in vivo
[9] = Oral bioavailability in mouse at 10 mg/kg; assay type: ADME, organism-based; conditions: in vivo
Mus musculus = experiment: Decrease in plasma glucose level in po dosed ob/ob mouse after 15 days by OGTT; assay type: functional, organism-based
[10] = Metabolic stability in rat microsomes assessed as half life; assay type: ADME, Microsome
[11] = Metabolic stability in monkey microsomes assessed as half life; assay type: ADME, Macaca mulatta, Microsome; conditions: rhesus monkey
[12] = Metabolic stability in human microsomes assessed as half life; assay type: ADME, Microsome
[13] = Metabolic stability in rabbit microsomes assessed as half life; assay type: ADME, Oryctolagus cuniculus, Microsome
hERG (KCNH2) = hERG (KCNH2) (Homo sapiens, UniProt Q12809); experiment: Inhibition of hERG at 10 uM; assay type: toxicity
[14] = Metabolic stability in mouse microsomes assessed as half life; assay type: ADME, Microsome
[15] = Metabolic stability in dog microsomes assessed as half life; assay type: ADME, Canis lupus familiaris, Microsome

Sequence of hERG (KCNH2) (Q12809 whole entry): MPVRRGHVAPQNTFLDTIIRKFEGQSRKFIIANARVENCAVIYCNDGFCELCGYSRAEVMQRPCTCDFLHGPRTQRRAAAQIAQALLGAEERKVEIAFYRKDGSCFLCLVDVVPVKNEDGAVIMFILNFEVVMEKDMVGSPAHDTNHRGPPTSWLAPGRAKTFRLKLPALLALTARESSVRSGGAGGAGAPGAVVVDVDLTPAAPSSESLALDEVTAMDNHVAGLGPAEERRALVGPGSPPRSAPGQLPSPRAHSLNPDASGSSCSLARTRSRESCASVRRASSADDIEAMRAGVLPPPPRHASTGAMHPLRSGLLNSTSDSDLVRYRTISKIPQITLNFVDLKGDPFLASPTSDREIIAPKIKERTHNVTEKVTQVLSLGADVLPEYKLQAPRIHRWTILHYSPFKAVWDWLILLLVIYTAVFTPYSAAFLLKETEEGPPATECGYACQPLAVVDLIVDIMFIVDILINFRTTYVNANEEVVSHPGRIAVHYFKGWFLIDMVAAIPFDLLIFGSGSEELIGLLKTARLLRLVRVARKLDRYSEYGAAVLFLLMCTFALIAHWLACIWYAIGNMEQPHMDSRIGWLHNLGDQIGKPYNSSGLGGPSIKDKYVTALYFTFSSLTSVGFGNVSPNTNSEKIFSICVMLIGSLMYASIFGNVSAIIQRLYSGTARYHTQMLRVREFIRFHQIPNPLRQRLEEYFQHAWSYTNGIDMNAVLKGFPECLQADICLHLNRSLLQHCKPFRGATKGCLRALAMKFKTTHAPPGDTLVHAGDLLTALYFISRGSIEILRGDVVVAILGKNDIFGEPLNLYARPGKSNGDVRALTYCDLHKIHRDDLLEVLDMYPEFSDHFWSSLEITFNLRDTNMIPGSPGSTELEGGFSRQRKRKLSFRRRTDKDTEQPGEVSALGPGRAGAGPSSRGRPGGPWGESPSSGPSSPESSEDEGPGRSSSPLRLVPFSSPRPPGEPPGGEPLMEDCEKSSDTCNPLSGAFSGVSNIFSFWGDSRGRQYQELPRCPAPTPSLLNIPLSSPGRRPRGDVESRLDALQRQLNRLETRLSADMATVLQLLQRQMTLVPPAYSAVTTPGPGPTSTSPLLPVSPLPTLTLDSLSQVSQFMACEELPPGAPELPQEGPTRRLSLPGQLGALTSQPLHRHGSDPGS

Compound: C=CC[C@]1(O)CC[C@H]2[C@@H]3CCC4=CC(=O)CCC4=C3[C@@H](c3ccc(P(=O)(OCC)OCC)cc3)C[C@@]21C
IC50 (Progesterone receptor): 308 nM
Papp [1]: 14.5 ×10⁻⁶ cm/s
Ratio (A549): 30.8
Ki (Glucocorticoid receptor): 10 nM

Compound: C=C1CCO[C@]12CC[C@H]1[C@@H]3CCC4=CC(=O)CCC4=C3[C@@H](c3ccc(P(=O)(OCC)OCC)cc3)C[C@@]12C
IC50 (Progesterone receptor): 9.9 nM
Ratio (A549): 0.17
Ki (Glucocorticoid receptor): 56.3 nM

Cmax [2]: 2800 ng/mL
Tmax [3]: 60 min
half-life [4]: 240 min
clearance [5]: 115 mL/min/kg
Cmax [6]: 30 ng/mL
half-life [7]: 168 min
Tmax [8]: 4.8 min
bioavailability [9]: 31%
Compound: CC#C[C@]1(O)CC[C@H]2[C@@H]3CCC4=CC(=O)CCC4=C3[C@@H](c3ccc(N(C)C)cc3)C[C@@]21C [MIFEPRISTONE]
Activity (Mus musculus): Active

IC50 (Progesterone receptor): > 1000 nM
Ki (Glucocorticoid receptor): > 3000 nM
Compound: C=C1CCO[C@]12CC[C@H]1[C@@H]3CCC4=CC(=O)CCC4=C3[C@@H](c3ccc(P(C)(=O)O)cc3)C[C@@]12C

IC50 (Progesterone receptor): > 1000 nM
Ki (Glucocorticoid receptor): > 3000 nM
Compound: C=C1CCO[C@]12CC[C@H]1[C@@H]3CCC4=CC(=O)CCC4=C3[C@@H](c3ccc(P(=O)(O)OCC)cc3)C[C@@]12C

Compound: CC#C[C@]1(O)CC[C@H]2[C@@H]3CCC4=CC(=O)CCC4=C3[C@@H](c3ccc(P(=O)(OCC)OCC)cc3)C[C@@]21C
IC50 (Progesterone receptor): 141 nM
Ratio (A549): 15.7
Ki (Glucocorticoid receptor): 9 nM

Compound: C=C1CCO[C@]12CC[C@H]1[C@@H]3CCC4=CC(=O)CCC4=C3[C@@H](c3ccc(P(C)(=O)OCC)cc3)C[C@@]12C (stereo not given in full)
IC50 (Progesterone receptor): 1.6 nM
Ratio (A549): 0.027
Ki (Glucocorticoid receptor): 59.8 nM

Cmax [2]: 5290 ng/mL
half-life [10]: > 30 min
half-life [11]: 8 min
half-life [12]: > 30 min
IC50 (Progesterone receptor): 763 nM
Tmax [3]: 120 min
half-life [4]: 46.2 min
Papp [1]: 2.6 ×10⁻⁶ cm/s
half-life [13]: 30 min
clearance [5]: 7.98 mL/min/kg
Cmax [6]: 1850 ng/mL
half-life [7]: 132 min
Tmax [8]: 4.8 min
bioavailability [9]: 59%
half-life [14]: 28 min
half-life [15]: 21 min
Ki (Glucocorticoid receptor): 10 nM
Compound: C=CC[C@]1(O)CC[C@H]2[C@@H]3CCC4=CC(=O)CCC4=C3[C@@H](c3ccc(P(=O)(c4ccccc4)c4ccccc4)cc3)C[C@@]21C
Ratio (A549): 76.3
inhibition at 10 µM (hERG (KCNH2)): 27.8%
Activity (Mus musculus): Active

IC50 (Progesterone receptor): 275 nM
Ki (Glucocorticoid receptor): 20 nM
Compound: C[C@]12C[C@H](c3ccc(P(=O)(c4ccccc4)c4ccccc4)cc3)C3=C4CCC(=O)C=C4CC[C@H]3[C@@H]1CC[C@@]2(O)c1ccccc1
Ratio (A549): 13.8

Compound: CC#C[C@]1(O)CC[C@H]2[C@@H]3CCC4=CC(=O)CCC4=C3[C@@H](c3ccc(P(=O)(c4ccccc4)c4ccccc4)cc3)C[C@@]21C
IC50 (Progesterone receptor): 381 nM
Ratio (A549): 127
Ki (Glucocorticoid receptor): 3 nM

IC50 (Progesterone receptor): 101 nM
IC50 (Glucocorticoid receptor): 10 nM
Compound: CC#C[C@]1(O)CC[C@H]2[C@@H]3CCC4=CC(=O)CCC4=C3[C@@H](c3ccc(P(C)(C)=O)cc3)C[C@@]21C
Ratio (A549): 10.1
